Results: patent US9283222B2 (priority 2006, dated 2016)
pKi: −log10 of the molar value.

target: Recombinant Human Poly(ADP-Ribose) Polymerase (PARP), PARP-1 (Homo sapiens (Human), UniProt P09874); conditions: read-out: PARP-1 (Ki); Table 1; text calls the values EC50s
Sequence (P09874 whole entry): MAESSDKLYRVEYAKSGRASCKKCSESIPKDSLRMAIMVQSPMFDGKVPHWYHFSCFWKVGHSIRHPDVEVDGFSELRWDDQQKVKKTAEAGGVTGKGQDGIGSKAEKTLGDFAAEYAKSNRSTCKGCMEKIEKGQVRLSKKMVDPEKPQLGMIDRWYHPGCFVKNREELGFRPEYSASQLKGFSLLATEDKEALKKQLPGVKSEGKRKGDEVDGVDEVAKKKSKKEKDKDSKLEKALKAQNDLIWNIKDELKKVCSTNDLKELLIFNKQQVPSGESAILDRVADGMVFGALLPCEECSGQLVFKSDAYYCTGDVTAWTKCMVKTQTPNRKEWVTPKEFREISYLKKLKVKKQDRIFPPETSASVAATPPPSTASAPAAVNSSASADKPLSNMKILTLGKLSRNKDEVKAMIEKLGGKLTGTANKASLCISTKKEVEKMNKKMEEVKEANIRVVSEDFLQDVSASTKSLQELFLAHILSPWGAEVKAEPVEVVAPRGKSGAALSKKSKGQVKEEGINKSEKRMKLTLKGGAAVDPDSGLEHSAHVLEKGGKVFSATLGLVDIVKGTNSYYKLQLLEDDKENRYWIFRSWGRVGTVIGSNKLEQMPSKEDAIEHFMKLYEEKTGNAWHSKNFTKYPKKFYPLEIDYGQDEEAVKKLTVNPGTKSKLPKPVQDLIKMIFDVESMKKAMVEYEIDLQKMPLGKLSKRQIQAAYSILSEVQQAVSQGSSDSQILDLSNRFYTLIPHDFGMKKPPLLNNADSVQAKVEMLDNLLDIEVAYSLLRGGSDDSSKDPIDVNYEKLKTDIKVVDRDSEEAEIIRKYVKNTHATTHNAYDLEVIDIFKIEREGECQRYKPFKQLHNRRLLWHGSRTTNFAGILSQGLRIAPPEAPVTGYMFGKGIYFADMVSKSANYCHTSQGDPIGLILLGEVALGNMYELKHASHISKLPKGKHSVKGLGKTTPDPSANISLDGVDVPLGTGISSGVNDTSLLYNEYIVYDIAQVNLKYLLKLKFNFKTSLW

Point of comparison: `O=C(NC1CCN(C(=O)[C@@H]2CSCN2)CC1)c1cc(Cc2n[nH]c(=O)c3c2NCCC3)ccc1F` [Example 729, 2-fluoro-5-[(5-oxo-1,2,3,4,5,6-hexahydropyrido[2,3-d]pyridazin-8-yl)methyl]-N-{1-[(4R)-1,3-thiazolidin-4-ylcarbonyl]piperidin-4-yl}benzamide], pKi 7.32. Against it:
- CCN(CCN)C(=O)c1cc(Cc2n[nH]c(=O)c3c2CCCC3)ccc1F [Example 719, N-(2-aminoethyl)-N-ethyl-2-fluoro-5-[(4-oxo-3,4,5,6,7,8-hexahydrophthalazin-1-yl)methyl]benzamide] — 0.83 log units higher, 8.15
- O=C(c1ccncc1)N1CCN(C(=O)c2cc(Cc3n[nH]c(=O)c4c3CCCC4)ccc2F)CC1 [Example 720, 4-{4-fluoro-3-[(4-isonicotinoylpiperazin-1-yl)carbonyl]benzyl}-5,6,7,8-tetrahydrophthalazin-1(2H)-one] — 1.53 log units higher, 8.85
- CN(C(=O)c1cc(Cc2n[nH]c(=O)c3c2NCCC3)ccc1F)C1CCN(C(=O)c2ccccn2)CC1 [Example 721, 2-fluoro-N-methyl-5-[(5-oxo-1,2,3,4,5,6-hexahydropyrido[2,3-d]pyridazin-8-yl)methyl]-N-[1-(pyridin-2-ylcarbonyl)piperidin-4-yl]benzamide] — 1.20 log units higher, 8.52
- O=C(c1cccnc1)N1CCN(C(=O)c2cc(Cc3n[nH]c(=O)c4c3CCCC4)ccc2F)CC1 [Example 722, 4-(4-fluoro-3-{[4-(pyridin-3-ylcarbonyl)piperazin-1-yl]carbonyl}benzyl)-5,6,7,8-tetrahydrophthalazin-1(2H)-one] — 1.60 log units higher, 8.92
- O=C(c1cnc(O)c(Cl)c1)N1CCN(C(=O)c2cc(Cc3n[nH]c(=O)c4c3CCCC4)ccc2F)CC1 [Example 723, 4-[3-({4-[(5-chloro-6-hydroxypyridin-3-yl)carbonyl]piperazin-1-yl}carbonyl)-4-fluorobenzyl]-5,6,7,8-tetrahydrophthalazin-1(2H)-one] — 1.57 log units higher, 8.89
- O=C(NC1CCN(C(=O)c2cccnc2)CC1)c1cc(Cc2n[nH]c(=O)c3c2NCCC3)ccc1F [Example 724, 2-fluoro-5-[(5-oxo-1,2,3,4,5,6-hexahydropyrido[2,3-d]pyridazin-8-yl)methyl]-N-[1-(pyridin-3-ylcarbonyl)piperidin-4-yl]benzamide] — 0.83 log units higher, 8.15
- CC(C)n1c(C(F)(F)F)nc2cc(C(=O)N3CCN(C(=O)c4cc(Cc5n[nH]c(=O)c6c5CCCC6)ccc4F)CC3)ccc21 [Example 725, 4-{4-fluoro-3-[(4-{[1-isopropyl-2-(trifluoromethyl)-1H-benzimidazol-5-yl]carbonyl}piperazin-1-yl)carbonyl]benzyl}-5,6,7,8-tetrahydrophthalazin-1(2H)-one] — 0.98 log units higher, 8.30
- O=C(NC1CCN(C(=O)c2ccco2)CC1)c1cc(Cc2n[nH]c(=O)c3c2NCCC3)ccc1F [Example 726, 2-fluoro-N-[1-(2-furoyl)piperidin-4-yl]-5-[(5-oxo-1,2,3,4,5,6-hexahydropyrido[2,3-d]pyridazin-8-yl)methyl]benzamide] — 1.08 log units higher, 8.40
- O=C(c1cc(Cc2n[nH]c(=O)c3c2CCCC3)ccc1F)N1CCN(C(=O)[C@@H]2CSCN2)CC1 [Example 727, 4-[4-fluoro-3-({4-[(4R)-1,3-thiazolidin-4-ylcarbonyl]piperazin-1-yl}carbonyl)benzyl]-5,6,7,8-tetrahydrophthalazin-1(2H)-one] — 1.53 log units higher, 8.85
- CC(C)n1nnc2cc(C(=O)N3CCN(C(=O)c4cc(Cc5n[nH]c(=O)c6c5CCCC6)ccc4F)CC3)ccc21 [Example 728, 4-[4-fluoro-3-({4-[(1-isopropyl-1H-1,2,3-benzotriazol-5-yl)carbonyl]piperazin-1-yl}carbonyl)benzyl]-5,6,7,8-tetrahydrophthalazin-1(2H)-one] — 1.42 log units higher, 8.74
- O=C(c1ccccn1)N1CCN(C(=O)c2cc(Cc3n[nH]c(=O)c4c3CCCC4)ccc2F)CC1 [Example 730, 4-(4-fluoro-3-{[4-(pyridin-2-ylcarbonyl)piperazin-1-yl]carbonyl}benzyl)-5,6,7,8-tetrahydrophthalazin-1(2H)-one] — 1.57 log units higher, 8.89
- O=C(NC1CCN(C(=O)c2cscn2)CC1)c1cc(Cc2n[nH]c(=O)c3c2NCCC3)ccc1F [Example 731, 2-fluoro-5-[(5-oxo-1,2,3,4,5,6-hexahydropyrido[2,3-d]pyridazin-8-yl)methyl]-N-[1-(1,3-thiazol-4-ylcarbonyl)piperidin-4-yl]benzamide] — 0.64 log units higher, 7.96
- O=C(c1cncnc1)N1CCN(C(=O)c2cc(Cc3n[nH]c(=O)c4c3CCCC4)ccc2F)CC1 [Example 733, 4-(4-fluoro-3-{[4-(pyrimidin-5-ylcarbonyl)piperazin-1-yl]carbonyl}benzyl)-5,6,7,8-tetrahydrophthalazin-1(2H)-one] — 1.45 log units higher, 8.77
- O=C(NC1CCN(C(=O)c2cn[nH]c2)CC1)c1cc(Cc2n[nH]c(=O)c3c2NCCC3)ccc1F [Example 734, 2-fluoro-5-[(5-oxo-1,2,3,4,5,6-hexahydropyrido[2,3-d]pyridazin-8-yl)methyl]-N-[1-(1H-pyrazol-4-ylcarbonyl)piperidin-4-yl]benzamide] — 0.73 log units higher, 8.05
- O=C(c1ccc(O)nc1)N1CCN(C(=O)c2cc(Cc3n[nH]c(=O)c4c3CCCC4)ccc2F)CC1 [Example 735, 4-[4-fluoro-3-({4-[(6-hydroxypyridin-3-yl)carbonyl]piperazin-1-yl}carbonyl)benzyl]-5,6,7,8-tetrahydrophthalazin-1(2H)-one] — 1.50 log units higher, 8.82
- O=C(NC1CCN(C(=O)c2ccccn2)CC1)c1cc(Cc2n[nH]c(=O)c3c2NCCC3)ccc1F [Example 736, 2-fluoro-5-[(5-oxo-1,2,3,4,5,6-hexahydropyrido[2,3-d]pyridazin-8-yl)methyl]-N-[1-(pyridin-2-ylcarbonyl)piperidin-4-yl]benzamide] — 1.08 log units higher, 8.40
- O=C(NC1CCN(C(=O)c2ccncc2)CC1)c1cc(Cc2n[nH]c(=O)c3c2NCCC3)ccc1F [Example 738, 2-fluoro-N-(1-isonicotinoylpiperidin-4-yl)-5-[(5-oxo-1,2,3,4,5,6-hexahydropyrido[2,3-d]pyridazin-8-yl)methyl]benzamide] — 0.53 log units higher, 7.85
- O=C(c1ccc2ccccc2n1)N1CCN(C(=O)c2cc(Cc3n[nH]c(=O)c4c3CCCC4)ccc2F)CC1 [Example 739, 4-(4-fluoro-3-{[4-(quinolin-2-ylcarbonyl)piperazin-1-yl]carbonyl}benzyl)-5,6,7,8-tetrahydrophthalazin-1(2H)-one] — 1.57 log units higher, 8.89
- N[C@H]1CCCC[C@@H]1NC(=O)c1cc(Cc2n[nH]c(=O)c3c2NCCC3)ccc1F [Example 740, N-[(1S,2S)-2-aminocyclohexyl]-2-fluoro-5-[(5-oxo-1,2,3,4,5,6-hexahydropyrido[2,3-d]pyridazin-8-yl)methyl]benzamide] — within 0.2 log units, 7.28
- CCN(CCNC(=O)c1ccccc1)C(=O)c1cc(Cc2n[nH]c(=O)c3c2CCCC3)ccc1F [Example 742, N-[2-(benzoylamino)ethyl]-N-ethyl-2-fluoro-5-[(4-oxo-3,4,5,6,7,8-hexahydrophthalazin-1-yl)methyl]benzamide] — 1.42 log units higher, 8.74
- CCN(CCNC(=O)N1CCCC1)C(=O)c1cc(Cc2n[nH]c(=O)c3c2CCCC3)ccc1F [Example 743, N-[2-(ethyl{2-fluoro-5-[(4-oxo-3,4,5,6,7,8-hexahydrophthalazin-1-yl)methyl]benzoyl}amino)ethyl]pyrrolidine-1-carboxamide] — 1.25 log units higher, 8.57
- O=C(NC1CCN(c2ccccn2)CC1)c1cc(Cc2n[nH]c(=O)c3c2NCCC3)ccc1F [Example 745, 2-fluoro-5-[(5-oxo-1,2,3,4,5,6-hexahydropyrido[2,3-d]pyridazin-8-yl)methyl]-N-(1-pyridin-2-ylpiperidin-4-yl)benzamide] — 0.78 log units higher, 8.10
- O=C(NC1CCN(C(=O)c2cc(Cc3n[nH]c(=O)c4c3NCCC4)ccc2F)CC1)c1cccnc1 [Example 747, N-(1-{2-fluoro-5-[(5-oxo-1,2,3,4,5,6-hexahydropyrido[2,3-d]pyridazin-8-yl)methyl]benzoyl}piperidin-4-yl)nicotinamide] — 1.50 log units higher, 8.82
- O=C(NC1CCN(C(=O)c2cc(Cc3n[nH]c(=O)c4c3NCCC4)ccc2F)CC1)c1ccncc1 [Example 748, N-(1-{2-fluoro-5-[(5-oxo-1,2,3,4,5,6-hexahydropyrido[2,3-d]pyridazin-8-yl)methyl]benzoyl}piperidin-4-yl)isonicotinamide] — 1.68 log units higher, 9.00
- O=C(NC1CCN(C(=O)c2cc(Cc3n[nH]c(=O)c4c3NCCC4)ccc2F)CC1)c1ccc2cn[nH]c2c1 [Example 749, N-(1-{2-fluoro-5-[(5-oxo-1,2,3,4,5,6-hexahydropyrido[2,3-d]pyridazin-8-yl)methyl]benzoyl}piperidin-4-yl)-1H-indazole-6-carboxamide] — 1.53 log units higher, 8.85
- O=C(NC1CCN(C(=O)c2cc(Cc3n[nH]c(=O)c4c3NCCC4)ccc2F)CC1)c1ccco1 [Example 750, N-(1-{2-fluoro-5-[(5-oxo-1,2,3,4,5,6-hexahydropyrido[2,3-d]pyridazin-8-yl)methyl]benzoyl}piperidin-4-yl)-2-furamide] — 1.64 log units higher, 8.96
- O=C(NC1CCN(C(=O)c2cc(Cc3n[nH]c(=O)c4c3NCCC4)ccc2F)CC1)c1cscn1 [Example 751, N-(1-{2-fluoro-5-[(5-oxo-1,2,3,4,5,6-hexahydropyrido[2,3-d]pyridazin-8-yl)methyl]benzoyl}piperidin-4-yl)-1,3-thiazole-4-carboxamide] — 1.50 log units higher, 8.82
- CN(C(=O)C1CCC1)c1cc(Cc2n[nH]c(=O)c3c2CCCC3)ccc1F [Example 753, N-{2-fluoro-5-[(4-oxo-3,4,5,6,7,8-hexahydrophthalazin-1-yl)methyl]phenyl}-N-methylcyclobutanecarboxamide] — 0.28 log units lower, 7.04
- Cc1nc2cc(C(=O)N3CCN(C(=O)c4cc(Cc5n[nH]c(=O)c6c5CCCC6)ccc4F)CC3)ccc2[nH]1 [Example 754, 4-[4-fluoro-3-({4-[(2-methyl-1H-benzimidazol-5-yl)carbonyl]piperazin-1-yl}carbonyl)benzyl]-5,6,7,8-tetrahydrophthalazin-1(2H)-one] — 1.90 log units higher, 9.22
- O=C(c1cc(Cc2n[nH]c(=O)c3c2CCCC3)ccc1F)N1CCN(C(=O)c2cccnc2Cl)CC1 [Example 755, 4-[3-({4-[(2-chloropyridin-3-yl)carbonyl]piperazin-1-yl}carbonyl)-4-fluorobenzyl]-5,6,7,8-tetrahydrophthalazin-1(2H)-one] — 1.50 log units higher, 8.82
